# According to publication PMC3958311 (EMBO Molecular Medicine, 2014):
# Read-outs that look alike come from different tables or passages of the source.
# Key:
# in vitro [1] = conditions: mouse, microsomes
# [2] = tested on: M. tuberculosis clinical isolate 5253; assay: Drug susceptibility testing on solid Löwenstein-Jensen medium; format: cell-based; conditions: Mycobacterium tuberculosis
# in vivo = conditions: mouse, in vivo
# Protocol: Table S5. Principal pharmacokinetic properties1
# 1 See Figure S5 for primary data.
# Compound levels were measured in serum from individual female mice (3/time point) that had received a single dose of 25 mg/kg. Maximum concentration (Cmax); area under the curve (AUC); apparent clearance.
# Comparative pharmacokinetic analysis. After receiving a single dose
# (25 mg/kg) of PBTZ169 or BTZ043 by gavage, groups of three female mice were sacrificed at the times indicated, blood was obtained by cardiac puncture and the drug levels in serum determined by LC-MS/MS technique (limit of quantification 10 μg/L).
# [3] = tested on: M. tuberculosis clinical isolate 6448; assay: Drug susceptibility testing on solid Löwenstein-Jensen medium; format: cell-based; conditions: Mycobacterium tuberculosis
# M. bovis BCG BN2 = format: cell-based, Mycobacterium bovis BCG
# M. marinum strain E11 = assay: Zebrafish embryo infection model, M. marinum strain E11; conditions: 25 nM for 5, 4 or 3 days
# Protocol: The number of colony forming units (CFU) per embryo was determined and compared to the level of fluorescence.
# Zebrafish embryos were infected with either M. marinum strain M (A, B) or E11 (C, D). […] The bacterial burden was assessed by fluorescence microscopy and customized software to quantify the number of fluorescent pixels (A and C), and by enumeration of the CFU in lysed embryos (B and D), immediately after imaging was performed. In B and D, each data point represents the mean number of CFU per embryo of 3 embryo extracts plated, the bars indicate means and s.e.m. after log transformation. […]
# Volumes of 1 nl of bacterial suspension, containing 50-200 CFU were injected into the caudal vein of embryonic zebrafish at approximately 28 h post fertilization. At 5 days post infection, embryos were monitored using fluorescence microscopy (Leica MZ16FA). Brightfield and fluorescent images were generated with a Leica DFC420C camera and subsequently fluorescent images were analyzed with customized software to quantify infection levels.
# Twelve infected embryos were incubated at 28°C in petri dishes of 4 cm diameter containing 4 ml sterilized egg water (60 μg/ml instant ocean sea salts) with 0.003% 1-phenyl-2-thiourea (Sigma) to prevent melanization. All drug treatment experiments were performed in egg water containing 1% DMSO and analyzed at 5 days post infection (dpi). […]
# M. avium ATCC 15769 = assay: MIC99 by REMA; format: cell-based
# zebrafish embryos = format: in vivo, zebrafish (Danio rerio); conditions: zebrafish, in vivo
# Protocol: On examination of infected zebrafish embryos treated with BTZ043 it was observed that the compound affected embryo development (Fig 6A–G) especially at concentrations above 25 nM. […] These defects were also observed when uninfected embryos were exposed to BTZ043.
# Figure 6 Effect of BTZ043 on M. marinum infected zebrafish embryo development. A–D M. marinum infected zebrafish embryos were treated with BTZ043 for 5 days at the concentrations indicated and photographed using a Leica DFC420C camera. The M strain was used for infection. E–F Images of the notochord from untreated and treated zebrafish, arrows indicate developmental abnormalities. G Analysis of zebrafish embryos displaying developmental abnormalities treated with BTZ043 (BTZ) or PBTZ169 (PBTZ) at the concentrations indicated.
# M. vaccae ATCC 15483 = assay: MIC99 by REMA; format: cell-based
# M. tuberculosis H37Rv [4] = assay: In vitro combination studies, REMA checkerboard; format: cell-based
# M. abscessus 2005-0524 = assay: MIC99 by REMA; format: cell-based
# [5] = target: T1, purified recombinant M. smegmatis NfnB (Mycolicibacterium smegmatis, UniProt A0R6D0); assay: NfnB-mediated nitroreduction followed by LC-MS; format: biochemical
# T1 construct: made in house
# M. tuberculosis H37Rv [6] = assay: Drug susceptibility testing on solid Löwenstein-Jensen medium; format: cell-based; conditions: Mycobacterium tuberculosis, H37RV
# M. bovis BCG Pasteur = assay: microbe, parasite or virus in culture; format: cell-based, Mycobacterium bovis BCG
# M. marinum strain M [7] = format: in vivo, zebrafish (Danio rerio); conditions: zebrafish, in vivo
# [8] = tested on: M. tuberculosis clinical isolate 6418; assay: Drug susceptibility testing on solid Löwenstein-Jensen medium; format: cell-based; conditions: Mycobacterium tuberculosis
# M. marinum Strain M [9] = assay: MIC99 by REMA; format: cell-based, Mycobacterium marinum
# M. massiliense 2005-0484 = assay: MIC99 by REMA; format: cell-based
# M. tuberculosis DprE1 = M. tuberculosis DprE1 (Mycobacterium tuberculosis, UniProt P9WJF1); assay: DprE1 inhibition, two step peroxidase-coupled assay with Amplex Red; format: biochemical
# M. smegmatis mc^2155 = assay: MIC99 by REMA; format: cell-based, Mycobacterium smegmatis
# M. tuberculosis H37Rv [10] = format: in vivo, BALB/c mice; conditions: mouse, in vivo
# M. smegmatis GM22 = assay: microbe, parasite or virus in culture; format: cell-based; conditions: for MIC99: M. smegmatis GM22, overproduces NfnB nitroreductase
# M. tuberculosis MDR_CHUV = assay: MIC99 by REMA; format: cell-based, Mycobacterium tuberculosis
# [11] = tested on: M. tuberculosis clinical isolate 4328; assay: Drug susceptibility testing on solid Löwenstein-Jensen medium; format: cell-based; conditions: Mycobacterium tuberculosis
# [12] = mouse
# [13] = tested on: M. tuberculosis clinical isolate 6412; assay: Drug susceptibility testing on solid Löwenstein-Jensen medium; format: cell-based; conditions: Mycobacterium tuberculosis
# M. bolletii 1999-0888 = assay: MIC99 by REMA; format: cell-based
# [14] = tested on: M. tuberculosis clinical isolate 6341; assay: Drug susceptibility testing on solid Löwenstein-Jensen medium; format: cell-based; conditions: Mycobacterium tuberculosis
# [15] = tested on: M. tuberculosis clinical isolate 6374; assay: as above; format: cell-based; conditions: Mycobacterium tuberculosis
# [16] = tested on: M. tuberculosis clinical isolate 7384; assay: as above; format: cell-based; conditions: Mycobacterium tuberculosis
# C. diphtheriae DSM 44123 = assay: MIC99 by REMA; format: cell-based, Corynebacterium diphtheriae
# C. glutamicum ATCC 13032 = assay: MIC99 by REMA; format: cell-based, Corynebacterium glutamicum
# in vitro [17] = conditions: human, microsomes
# [18] = tested on: M. tuberculosis clinical isolate 5055; assay: Drug susceptibility testing on solid Löwenstein-Jensen medium; format: cell-based; conditions: Mycobacterium tuberculosis
# M. tuberculosis H37Rv [19] = assay: MIC by resazurin reduction microplate assay (REMA); format: cell-based, Mycobacterium tuberculosis
# [20] = human
# M. smegmatis MN84 = format: cell-based; conditions: M. smegmatis MN84, DprE1 Cys394Ser
# M. smegmatis MN47 = format: cell-based; conditions: M. smegmatis MN47, DprE1 Cys394Gly
# [21] = Mycobacterium tuberculosis, H37RV
# Chain of M. tuberculosis DprE1 (P9WJF1 whole entry, looked up): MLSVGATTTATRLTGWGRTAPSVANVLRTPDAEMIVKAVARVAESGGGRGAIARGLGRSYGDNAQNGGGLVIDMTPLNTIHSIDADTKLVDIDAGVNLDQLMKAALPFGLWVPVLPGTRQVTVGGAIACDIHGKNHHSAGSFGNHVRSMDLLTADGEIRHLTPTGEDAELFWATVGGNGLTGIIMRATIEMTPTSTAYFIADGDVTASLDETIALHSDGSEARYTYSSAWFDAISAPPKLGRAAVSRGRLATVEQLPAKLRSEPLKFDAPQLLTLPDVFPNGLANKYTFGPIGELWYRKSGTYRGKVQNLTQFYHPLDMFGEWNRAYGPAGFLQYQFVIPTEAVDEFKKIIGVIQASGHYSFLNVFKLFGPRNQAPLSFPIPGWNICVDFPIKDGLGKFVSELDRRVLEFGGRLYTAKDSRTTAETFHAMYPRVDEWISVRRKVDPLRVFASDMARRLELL
# T1 sequence (A0R6D0 whole entry): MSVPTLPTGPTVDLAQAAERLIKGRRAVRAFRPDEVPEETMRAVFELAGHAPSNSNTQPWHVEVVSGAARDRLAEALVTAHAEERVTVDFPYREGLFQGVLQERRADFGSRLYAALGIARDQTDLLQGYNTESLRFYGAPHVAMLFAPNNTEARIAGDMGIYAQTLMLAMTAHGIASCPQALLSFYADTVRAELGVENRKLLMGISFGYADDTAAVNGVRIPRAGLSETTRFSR
compound,measurement,setting,value
O=c1nc(N2CCN(CC3CCCCC3)CC2)sc2c([N+](=O)[O-])cc(C(F)(F)F)cc12 [PBTZ169],selectivity index,HepG2 human cell line; HepG2 cytotoxicity relative to MIC,> 10 000
same,TD99,HepG2 human cell line; human,> 200 µg/mL
same,microsomal CLint,in vitro [1],24.3 µL/min/mg
same,MIC,[2],0.063 µg/mL
same,time the serum level remains well above MIC,in vivo; female,> 21 h
same,Cmax,"in vivo; female, po, 25 mg/kg",1850 ng/mL
same,half-life,"in vivo; female, po, 25 mg/kg",1.85 h
same,k el,"in vivo; female, po, 25 mg/kg",0.000104 s⁻¹
same,AUC,"in vivo; po, 25 mg/kg",193487 µg·min/L
same,MIC,[3],0.063 µg/mL
same,MIC99,M. bovis BCG BN2,>100 µg/mL
same,fold increased resistance conferred by the Cys387Ser mutation in DprE1,M. bovis BCG BN2,> 10 000 fold
same,decrease in number of CFU per embryo,M. marinum strain E11,~2 log units
same,MIC99,"M. avium ATCC 15769; Mycobacterium avium, ATCC15769",> 100 µg/mL
same,developmental defects in zebrafish embryos (in words),zebrafish embryos,no developmental defects were seen
same,MIC99,"M. vaccae ATCC 15483; Mycolicibacterium vaccae, ATCC15483",> 100 µg/mL
same,ΣFIC (sum of the fractional inhibitory concentrations),M. tuberculosis H37Rv [4],0.5
same,MIC99,"M. abscessus 2005-0524; Mycobacteroides abscessus, 20050524",> 100 µg/mL
same,"NfnB-mediated reduction, species found by LC-MS",[5],the major species found in the LC-MS analysis was the original nitro form
same,MIC,M. tuberculosis H37Rv [6],0.031 µg/mL
same,MIC99,"M. bovis BCG Pasteur; Mycobacterium tuberculosis variant bovis BCG, BCG",0.0006 µg/mL
same,bacterial burden in infected zebrafish embryos (fluorescence),M. marinum strain M [7],almost no bacteria were present
same,decrease in number of CFU per embryo,M. marinum strain M [7],about 3 log units
same,effect on the infection in zebrafish embryos,M. marinum strain M [7],no significant effect
same,MIC,[8],0.063 µg/mL
same,MIC99,M. marinum Strain M [9]; Mycobacterium marinum,0.0003 µg/mL
same,MIC99,"M. massiliense 2005-0484; Mycobacteroides abscessus, 20050484",> 100 µg/mL
same,concentration giving full inhibition of DprE1,M. tuberculosis DprE1,5 µM
same,MIC99,"M. smegmatis mc^2155; Mycolicibacterium smegmatis, MC^2155",0.0007 µg/mL
same,activity in dose escalation study (in words),M. tuberculosis H37Rv [10],active at all the concentrations tested
same,reduction of CFU in the lungs in comparison to BTZ043 at the same dose,M. tuberculosis H37Rv [10],> 0.5 log
same,"reduction of bacterial burden in the spleens, fold more than BTZ043",M. tuberculosis H37Rv [10],10 fold
same,MIC,"M. smegmatis GM22; Mycolicibacterium smegmatis, GM22, read-out: MIC for GM22",0.005 µg/mL
same,MIC99,"M. smegmatis GM22; Mycolicibacterium smegmatis, read-out: MIC99",0.003 µg/mL
same,MIC99,M. tuberculosis MDR_CHUV; Mycobacterium tuberculosis,0.0004 µg/mL
same,MIC,[11],0.063 µg/mL
same,clearance on incubation with microsomes (in words),[12],medium clearance values
same,MIC,[13],0.031 µg/mL
same,MIC99,"M. bolletii 1999-0888; Mycobacteroides abscessus, 19990888",> 100 µg/mL
same,MIC,[14],0.031 µg/mL
same,MIC,[15],0.063 µg/mL
same,MIC,[16],0.063 µg/mL
same,MIC99,"C. diphtheriae DSM 44123; Corynebacterium diphtheriae, DSM44123",0.003 µg/mL
same,MIC99,"C. glutamicum ATCC 13032; Corynebacterium glutamicum, ATCC13032",0.013 µg/mL
same,microsomal CLint,in vitro [17],24.8 µL/min/mg
same,MIC,[18],0.063 µg/mL
same,MIC,M. tuberculosis H37Rv [19]; [21],≤ 0.00019 µg/mL
same,MIC99,M. tuberculosis H37Rv [19]; [21],0.0003 µg/mL
same,MIC,"M. tuberculosis H37Rv [19]; Mycobacterium tuberculosis, H37RV, read-out: MIC M. tuberculosis",≤ 0.00019 µg/mL
same,clearance on incubation with microsomes (in words),[20],medium clearance values
moxifloxicin [MXF],MIC99,M. bovis BCG BN2,0.03 µg/mL
same,MIC99,M. avium ATCC 15769,0.47 µg/mL
same,MIC99,M. vaccae ATCC 15483,0.63 µg/mL
same,MIC99,M. abscessus 2005-0524,0.78 µg/mL
same,MIC99,M. bovis BCG Pasteur,0.02 µg/mL
same,MIC99,M. marinum Strain M [9],0.1 µg/mL
same,MIC99,M. massiliense 2005-0484,0.96 µg/mL
same,MIC99,M. smegmatis mc^2155,0.06 µg/mL
same,MIC99,M. smegmatis MN84,0.06 µg/mL
same,MIC99,M. smegmatis GM22,0.06 µg/mL
same,MIC99,M. tuberculosis MDR_CHUV,0.03 µg/mL
same,MIC99,M. smegmatis MN47,0.06 µg/mL
same,MIC99,M. bolletii 1999-0888,0.94 µg/mL
same,MIC99,C. diphtheriae DSM 44123,0.02 µg/mL
same,MIC99,C. glutamicum ATCC 13032,0.31 µg/mL
same,MIC99,M. tuberculosis H37Rv [19],0.03 µg/mL
